Results taken from US5872124A, “Treatment of diseases of the central nervous system using uric acid as a scavenger of peroxynitrite” (Thomas Jefferson University, priority 1996, dated 1999).

What was measured:
[1] = Water solubility; format: physicochemical
[2] = system: nitric oxide (NO); experiment: NO levels in spinal cord and brain of SJL mice with EAE; format: in vivo
Protocol: SJL mice are immunized subcutaneously with pMBP in adjuvant to induce EAE, from which they often recover. Commencing ten days post-immunization, groups of mice (n=6) were treated once daily with 2 mg of either PTIO or carboxy-PTIO intraperitoneally and observed for clinical signs of EAE which were graded as detailed in Table 1. […] At 18 days […], NO determinations were performed in several mice from each group.

[3] = system: experimental allergic encephalomyelitis (EAE), PLP immunization; experiment: Survival of SWXJ-14 mice with EAE; format: in vivo
Protocol: FIG. 14. Comparison of the survival of SWXJ-14 mice with EAE treated with PTIO and uric acid. SWXJ-mice were immunized with PLP in CFA as described for FIG. 12 and treated once daily with a 2 mg dose of uric acid or PTIO i.p. from day 5 to day 13, followed by two daily doses on day 14 and three daily doses thereafterward.
To more directly compare the action of PTIO and uric acid in EAE we have administered each of these agents in parallel to PLP-immunized SWXJ-14 mice. In these experiments the mice were immunized with PLP and treated with increasing doses of PTIO or uric acid beginning at day 5 after immunization.

[4] = Side-effects of PTIO in EAE; format: in vivo
Protocol: The biological half-life of carboxy-PTIO are estimated to be less than five minutes in the blood when injected i.v. or i.p. into either rats or mice. Approximately 75% of the PTIO administered to mice can be accounted for in excretions within 4 hours. Nevertheless, the clinical symptoms of animals subjected to the stimuli that induce EAE and treated with PTIO are clearly alleviated for at least 24 hours between doses. […] It is possible that the removal of a significant quantity of NO may reduce the amount of tissue damage to a level that the animal can cope with. However, we believe that it is possible that the transient reduction of NO accumulation in an inflammatory response may have more wide ranging effects for instance through the disturbance of regulatory circuits effecting the production of NO or one of the other related substances involved in immunopathology. […] Through its effects on the circulation, NO may play a role in facilitating access of MBP specific T cells to the brain which could be inhibited by PTIO. It is also conceivable that a PTIO derivative formed by its interaction with NO also has some protective effect. […]

[5] = system: experimental allergic encephalomyelitis (EAE), MBP-specific T cell transfer; experiment: Clinical severity of adoptive transfer EAE in Lewis rats; format: in vivo
Source text: Induction of EAE in rats by adoptive transfer of MBP-specific T cells or in SJL or SWXJ-14 mice by immunization with MBP or PLP 139-151, a peptide derived from […] [8], results in variable disease. We have scored the clinical systems of EAE as tabulated below.
______________________________________
Severity scores and symptoms of Experimental Allergic
1 piloerection, tail weakness
3 hind limb weakness/paralysis
4 hind and forelimb paralysis
In FIG. 1, EAE was elicited in 11 week old female Lewis rats by the adoptive transfer of 20×10^6 cells of the MBP-specific line 5HGBP.G5 activated by stimulation with MBP and syngeneic APC 48 hours previously and NO levels measured 5 days after transfer. In SWXJ-14 mice, EAE was triggered by two subcutaneous immunizations (d.0 and 7) with 100 μg PLP in CFA over two injection sites, and NO levels measured 18 days later. Results expressed represent the mean values obtained from a minimum of 4 animals. Peak severity of the symptoms of EAE ranged from 2-3 for the rats and 4-5 for the mice. NO was semi-quantitated using spin trapping with DETC and EPR-spectroscopy as described previously.
Rats were injected i.v. with 20×10^6 MBP-specific CD4 T cells activated in vitro. Two days later the animals were treated with a single dose of either PTIO (20 mg) or a mixture of PTIO (20 mg), indomethacin (1 mg), and allopurinol (13 mg). Treatment was continued on a daily basis until day 4 and animals were sacrificed for NO measurement the following day.

In the case of `CC1(C)N([O])C(c2ccccc2)=[N+]([O-])C1(C)C` [PTIO, 2-phenyl-4,4,5,5-tetramethylimidazoline-1-oxyl-3-oxide], the Water solubility [1] is reported as “not water soluble”, the “NO levels in spinal cord (FIG. 8)” value ([2]; 2 mg once daily i.p., day 18) is reported as “lower in the spinal cords” and the “Levels of NO in spinal cord” value ([2]; SJL mice, i.p. administration) is reported as “reduce levels of NO detected in spinal cord”. The NO-spinal cord ([2]; SJL mouse - immunization EAE, Table 2) was 1.6 mM, the “Improvement in clinical signs of surviving mice (FIG. 14)” value ([3]; at termination of the experiment) was “a number were actually beginning to show some improvement in the clinical signs of their disease” and the “Mice still alive (FIG. 14)” value ([3]; several days after day 18, 2 mg i.p. once daily day 5-13, two doses day 14, then three daily) was 40%. For the same compound, the Side-effects [4] was “without notable side-effects”, the “Symptoms of disease (FIG. 6)” value ([5]; PTIO 20 mg daily from day 2 to day 4 after T cell transfer, alone or in mix) was “little or no symptoms of disease” and the Clinical severity ([5]; Rat-adoptive transfer EAE, severity score 1-5, Table 2) was 0.8. For the same compound, the “Duration of alleviation of clinical symptoms between doses” value ([5]; animals subjected to stimuli that induce EAE (species not specified)) was “at least 24 hours” and the “Clinical symptoms of EAE” value ([5]; rats, MBP-specific T cell transfer, i.p. administration) was “forestall the appearance of clinical symptoms of EAE”.
